Tests used:
human OATP1B1 = biological target: T1, human OATP1B1 (Homo sapiens, UniProt Q9Y6L6); test: Cellular transport assay, HEK-293 cells expressing human OATP1B1; details: for TransportTC/TransportMC ratio (net transport ratio): 10 min
T1 sequence (Q9Y6L6 1-691): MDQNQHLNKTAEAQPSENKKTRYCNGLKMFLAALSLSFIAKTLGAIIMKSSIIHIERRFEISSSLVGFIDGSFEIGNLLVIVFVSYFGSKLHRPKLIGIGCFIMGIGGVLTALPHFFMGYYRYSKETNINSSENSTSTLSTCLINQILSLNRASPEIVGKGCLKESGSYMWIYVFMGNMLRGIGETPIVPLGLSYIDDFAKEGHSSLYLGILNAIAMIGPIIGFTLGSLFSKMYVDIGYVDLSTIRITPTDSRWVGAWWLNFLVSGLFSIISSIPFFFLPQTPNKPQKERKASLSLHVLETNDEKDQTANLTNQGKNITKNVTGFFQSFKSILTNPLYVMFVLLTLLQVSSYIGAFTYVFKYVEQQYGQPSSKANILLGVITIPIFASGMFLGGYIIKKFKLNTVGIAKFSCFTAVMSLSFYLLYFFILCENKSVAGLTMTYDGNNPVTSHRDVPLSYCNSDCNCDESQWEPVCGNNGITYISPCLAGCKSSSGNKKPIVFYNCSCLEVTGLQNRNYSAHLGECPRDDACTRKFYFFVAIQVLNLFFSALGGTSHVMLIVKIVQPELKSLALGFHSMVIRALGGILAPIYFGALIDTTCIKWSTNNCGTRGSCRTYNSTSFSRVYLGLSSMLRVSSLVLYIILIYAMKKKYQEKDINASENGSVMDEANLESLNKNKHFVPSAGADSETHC
In short: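 Read-out is LC/MS quantitation of Danshen compound taken up over 5 min, a window within linear uptake, by HEK-293 cells transiently expressing the transporter or carrying empty vector. Cells were used 48 h after transfection. Initial rates versus substrate concentration were fitted nonlinearly for Km and Vmax.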

OATP1B3 = biological target: T2, OATP1B3 (Homo sapiens, UniProt Q9NPD5); test: Cellular transport assay, HEK-293 cells expressing human OATP1B3; details: for TransportTC/TransportMC ratio (net transport ratio): 10 min; for K m / V max: 5 min incubation, concentrations in Table 1
T2 sequence (Q9NPD5 1-702): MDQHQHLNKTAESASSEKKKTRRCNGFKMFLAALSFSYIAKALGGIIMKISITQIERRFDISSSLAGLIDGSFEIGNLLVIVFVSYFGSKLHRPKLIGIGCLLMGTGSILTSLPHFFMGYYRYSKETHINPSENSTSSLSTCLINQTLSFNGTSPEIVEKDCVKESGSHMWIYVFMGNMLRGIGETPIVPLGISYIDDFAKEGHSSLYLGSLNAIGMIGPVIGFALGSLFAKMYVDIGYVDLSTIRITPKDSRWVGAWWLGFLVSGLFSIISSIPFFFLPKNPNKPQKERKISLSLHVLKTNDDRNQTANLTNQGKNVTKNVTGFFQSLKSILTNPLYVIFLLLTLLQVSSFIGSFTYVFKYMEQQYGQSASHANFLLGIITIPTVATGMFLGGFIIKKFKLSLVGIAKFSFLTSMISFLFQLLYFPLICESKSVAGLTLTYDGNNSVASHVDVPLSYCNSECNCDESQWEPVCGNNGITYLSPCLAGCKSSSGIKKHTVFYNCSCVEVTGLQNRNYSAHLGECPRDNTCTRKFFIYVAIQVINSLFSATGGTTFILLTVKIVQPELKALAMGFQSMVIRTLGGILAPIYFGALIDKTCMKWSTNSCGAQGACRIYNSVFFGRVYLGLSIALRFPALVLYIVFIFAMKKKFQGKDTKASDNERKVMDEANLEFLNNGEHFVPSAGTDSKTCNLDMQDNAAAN

rat Oatp1b2 = biological target: T3, rat Oatp1b2 (Rattus norvegicus, UniProt Q9QZX8); test: Cellular transport assay, HEK-293 cells expressing rat Oatp1b2; details: for TransportTC/TransportMC ratio (net transport ratio): 10 min
T3 sequence (Q9QZX8 1-687): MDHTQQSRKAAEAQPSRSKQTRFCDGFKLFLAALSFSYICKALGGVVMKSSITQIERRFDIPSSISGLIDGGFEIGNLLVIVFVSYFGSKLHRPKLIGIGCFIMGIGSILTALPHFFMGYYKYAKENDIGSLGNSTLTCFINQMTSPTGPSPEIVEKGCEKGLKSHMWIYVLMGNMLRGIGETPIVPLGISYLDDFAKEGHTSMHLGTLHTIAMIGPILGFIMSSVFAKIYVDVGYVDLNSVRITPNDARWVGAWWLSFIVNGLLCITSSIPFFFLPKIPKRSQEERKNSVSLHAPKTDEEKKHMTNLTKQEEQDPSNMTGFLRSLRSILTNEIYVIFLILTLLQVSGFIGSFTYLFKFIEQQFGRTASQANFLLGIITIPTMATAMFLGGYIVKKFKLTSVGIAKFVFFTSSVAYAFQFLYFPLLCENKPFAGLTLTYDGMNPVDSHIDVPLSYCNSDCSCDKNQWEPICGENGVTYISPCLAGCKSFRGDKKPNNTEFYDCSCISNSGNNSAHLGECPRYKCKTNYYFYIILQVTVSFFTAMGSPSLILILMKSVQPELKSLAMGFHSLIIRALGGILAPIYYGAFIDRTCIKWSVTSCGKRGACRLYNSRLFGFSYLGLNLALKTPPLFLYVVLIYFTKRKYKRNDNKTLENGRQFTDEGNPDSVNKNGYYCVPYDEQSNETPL

[1] = Danshen phenolic acid at 100 μM final concentration, human OATP1B1-transfected vs mock cells
[2] = human hepatic sinusoidal uptake OATP1B1, 5 min incubation, concentrations in Table 1
[3] = Danshen phenolic acid at 100 μM final concentration, human OATP1B3-transfected vs mock cells
[4] = human hepatic sinusoidal uptake OATP1B3
[5] = human, HEK-293 cells expressing human OATP1B3 (vs mock cells)
[6] = Danshen phenolic acid at 100 μM final concentration, rat Oatp1b2-transfected vs mock cells
[7] = rat hepatic sinusoidal uptake Oatp1b2, 5 min incubation, concentrations in Table 1

Row | Compound | substrate of human OATP1B1 (human OATP1B1) | TransportTC/TransportMC ratio (net transport ratio) (human OATP1B1; [1]) | microsomal CLint (human OATP1B1; human) [µL/min/mg] | K m (human OATP1B1; [2]) [µM] | substrate of human OATP1B3 (OATP1B3) | TransportTC/TransportMC ratio (net transport ratio) (OATP1B3; [3]) | K m (OATP1B3; [4]) [µM] | V max (OATP1B3; [4]) [pmol/min/mg protein] | microsomal CLint (OATP1B3; [5]) [µL/min/mg] | substrate of rat Oatp1b2 (rat Oatp1b2) | TransportTC/TransportMC ratio (net transport ratio) (rat Oatp1b2; [6]) | microsomal CLint (rat Oatp1b2; rat) [µL/min/mg] | K m (rat Oatp1b2; [7]) [µM] | TransportTC/TransportMC ratio (net transport ratio) (human OATP1B1; human, 100 μM) | TransportTC/TransportMC ratio (net transport ratio) (OATP1B3; human, 100 μM) | TransportTC/TransportMC ratio (net transport ratio) (rat Oatp1b2; rat, 100 μM) | microsomal CLint (rat Oatp1b2; rat, other cell line) [µL/min/mg] | other results
1 | O=C(/C=C/c1ccc(O)c2c1[C@H](C(=O)O)[C@@H](c1ccc(O)c(O)c1)O2)O[C@H](Cc1ccc(O)c(O)c1)C(=O)O [Lithospermic acid, lithospermic acid] | substrates | 3.99 ± 0.24 | 0.06 | 428 ± 67 | substrates | 8.02 ± 0.52 | 182 ± 26 | 9.59 ± 0.51 | 0.05 | substrates | 11.6 ± 0.7 | 0.41 | 91.3 ± 10.6 |  |  |  |  | 
2 | O=C(O)c1ccc(O)c(O)c1 [Protocatechuic acid, protocatechuic acid] |  | 0.83 ± 0.14 |  |  |  | 0.75 ± 0.09 |  |  |  | neither protocatechuic acid nor tanshinol was a substrate | 1.32 ± 0.45 |  |  |  |  |  |  | 
3 | O=C(/C=C/c1ccc(O)c(O)c1)O[C@H](Cc1ccc(O)c(O)c1)C(=O)O [Rosmarinic acid, rosmarinic acid] | substrates |  |  |  | substrates |  |  |  |  | substrates |  |  | 2049 ± 418 | 4.00 ± 0.43 | 7.28 ± 0.58 | 17.0 ± 2.8 | 0.08 | microsomal CLint (human OATP1B1; human, other cell line): 0.07 µL/min/mg; microsomal CLint (OATP1B3; human, other cell line): 0.09 µL/min/mg
4 | O=C(/C=C/c1ccc(O)c(O)c1/C=C/c1ccc(O)c(O)c1)O[C@H](Cc1ccc(O)c(O)c1)C(=O)O [Salvianolic acid A, salvianolic acid A] | not a substrate |  |  |  | not a substrate |  |  |  |  | substrate |  |  | 50.5 ± 12.8 | 1.21 ± 0.33 | 1.02 ± 0.31 | 7.52 ± 1.31 | 0.38 | 
5 | O=C(O)Cc1c(/C=C/C(=O)O[C@H](Cc2ccc(O)c(O)c2)C(=O)O)ccc(O)c1O [Salvianolic acid D, salvianolic acid D] | substrates | 5.38 ± 0.83 | 0.22 | 403 ± 85 | substrates | 5.83 ± 0.49 | 570 ± 79 | 98.5 ± 4.8 | 0.17 | substrates | 16.0 ± 0.8 | 1.23 | 464 ± 62 |  |  |  |  | 
6 | salvianolic acid B | substrates | 5.16 ± 1.30 |  | 58.9 ± 6.2 | substrates | 16.2 ± 0.6 | 13.0 ± 1.6 | 11.0 ± 0.4 |  | substrates | 30.0 ± 0.6 |  | 20.5 ± 1.9 |  |  |  |  | CLint (human OATP1B1; human hepatic sinusoidal uptake OATP1B1): 0.46 μL/min/mg protein; V max (human OATP1B1; [2]): 28.1 ± 1.2 pmol/min/mg protein; CLint (OATP1B3; [4]): 0.85 μL/min/mg protein; CLint (rat Oatp1b2; rat hepatic sinusoidal uptake Oatp1b2): 0.87 μL/min/mg protein; V max (rat Oatp1b2; [7]): 17.7 ± 0.5 pmol/min/mg protein

Reference: paper PMC9127186, “Molecular Basis Underlying Hepatobiliary and Renal Excretion of Phenolic Acids of Salvia miltiorrhiza Roots (Danshen)” (Frontiers in Pharmacology, 2022)
